Data on two compounds can be found in ChEMBL document CHEMBL1687856, “Oroidin inhibits the activity of the multidrug resistance target Pdr5p from yeast plasma membranes” (J Nat Prod, 2011).

Each structure is given as a SMILES string. Active and inactive are the calls of the source. No cut-off for these calls is given here.

For test [1], the system named is Saccharomyces cerevisiae. Put plainly: Inhibition of Pdrp5-mediated rhodamine 6G accumulation in Saccharomyces cerevisiae AD124567 at 20 uM after 2 hrs by fluorescence microscopic analysis.
The test system of test [2] is Saccharomyces cerevisiae. Put plainly: Inhibition of Prdp5 in Saccharomyces cerevisiae AD124567 assessed as inhibition of glucose-dependent rhodamine 6G efflux after 2 hrs at 100 uM by fluorescence microscopy.
Test [3] deals with Saccharomyces cerevisiae. Nature of the test: Inhibition of Prdp5 in Saccharomyces cerevisiae AD124567 assessed as inhibition of glucose-dependent rhodamine 6G efflux after 13 mins at 200 uM by spectrofluorimetry in presence of 2-deoxyglucose treated for 30 mins before compound addition.
For test [4], the system named is Saccharomyces cerevisiae. Put plainly: Antimicrobial activity against Saccharomyces cerevisiae AD124567 assessed as growth yield reduction at 200 uM after 48 hrs by chemosensitization assay. As to conditions: AD124567, 48 h, read-out: GI.
A short description of test [5]: Inhibition of Pdr5p-dependent UTPase activity in Saccharomyces cerevisiae AD124567 assessed as release of inorganic phosphate after 60 mins […].
Test [6] relates to Saccharomyces cerevisiae. Nature of the test: Inhibition of Prdp5 in Saccharomyces cerevisiae AD124567 assessed as inhibition of glucose-dependent rhodamine 6G efflux after 13 mins by spectrofluorimetry in presence of 2-deoxyglucose treated for 30 mins before compound addition.
Test [7] in a line: Inhibition of Pdr5p-dependent ATPase activity in Saccharomyces cerevisiae AD124567 assessed as release of inorganic phosphate after 60 mins […].
In test [8] the test system is Saccharomyces cerevisiae. Put plainly: Antimicrobial activity against Pdrp5 overexpressing Saccharomyces cerevisiae AD124567 assessed as growth yield reduction at 200 uM after 48 hrs by chemosensitization assay. It is filed as functional. As to conditions: AD124567, 48 h, read-out: GI.

For the compound `C=CC[C@@H]1/C=C(\C)C[C@H](C)C[C@H](OC)[C@H]2O[C@@](O)(C(=O)C(=O)N3CCCC[C@H]3C(=O)O[C@H](/C(C)=C/[C@@H]3CC[C@@H](O)[C@H](OC)C3)[C@H](C)[C@@H](O)CC1=O)[C@H](C)C[C@@H]2OC`, the inhibition result in test [1] is “Active”.

As for `Nc1ncc(/C=C/CNC(=O)c2cc(Br)c(Br)[nH]2)[nH]1` [OROIDIN], the inhibition result in test [2] was “Active”. The figures for the inhibition in test [3] and in test [6] were 60% and “Dose-dependent effect”, respectively. Also, the inhibition of growth at 200 µM in test [4] and in test [8] was 30% in each case. Besides, the half-maximal inhibitory concentration (IC50) in test [5] stood at 13 µM; in test [7], 20 µM.
